Assay results from ChEMBL document CHEMBL5579854, “Targeting Relevant HDACs to Support the Survival of Cone Photoreceptors in Inherited Retinal Diseases: Identification of a Potent Pharmacological Tool with In Vitro and In Vivo Efficacy” (J Med Chem, 2024).
In brackets after ≈: the same amount, converted by molar mass. Activity calls are given as the source filed them. The calls are words filed in the database; no cut-off is given here.

Experiments:
[1] = tested on: 661W; experiment: Cytoprotective effect against H2O2-induced oxidative stress in mouse 661W cells assessed as increase in acetylated alpha-tubulin level at 30 uM incubated for 24 hrs followed by H2O2 treatment for 3 hrs by Western blot analysis; format: functional, cell-based; details: time 27.0 hrs
[2] = tested on: Mus musculus; experiment: Upregulation of ARR3 mRNA level in eyes of C57BL/6J mouse model harboring rd10 mutant at 5 to 30 uM, IVT administered bilaterally measured after 5 days by RT-PCR analysis; format: functional, tissue-based; details: Eye, dose 5-30 µM, time 5.0 day
[3] = tested on: Mus musculus; experiment: Rescue of scotopic response in eyes of C57BL/6J mouse model harboring rd10 mutant at 5 to 30 uM, IVT administered bilaterally measured after 5 days by ERG analysis; format: functional, tissue-based; details: Eye, dose 5-30 µM, time 5.0 day
[4] = Toxicity in zebrafish larval dye model harboring atp6v0e1/ucd6 assessed as morphological change in eye at 80 to 100 uM treated for 2 days by toluidine blue staining based analysis; format: tissue-based, Danio rerio; details: in vivo, 48 h, dose 80-100 µM, time 2 day
[5] = Toxicity in zebrafish larval dye model harboring atp6v0e1/ucd6 assessed as visual impairment at 20 to 100 uM treated for 2 days; design: species or system Danio rerio; details: in vivo, 48 h, dose 20-100 µM, time 2 day
[6] = Solubility of compound; format: physicochemical
[7] = Toxicity in Langendorff-perfused Wistar rat heart assessed as effect on chronotropic activity at 0.1 to 30 uM; format: tissue-based; details: dose 0.1-30 µM
[8] = species: Danio rerio; experiment: Rescue of visual acuity in zebrafish larval dye model harboring atp6v0e1/ucd6 at 100 uM treated for 2 days by OKR analysis; format: functional, organism-based; details: time 2.0 day
[9] = tested on: Cytochrome P450; experiment: Inhibition of CYP in human liver microsomes using ECOD at 1 to 50 uM measured upto 30 mins by fluorescence based assay; format: ADME, Microsome; details: 0.5 h, dose 1-50 µM
[10] = target: T1, Cytochrome P450 1A (Homo sapiens, UniProt P04798+P05177); experiment: Inhibition of CYP1A in human liver microsomes using ECOD at 1 to 50 uM measured upto 30 mins by fluorescence based assay; format: ADME, Microsome; details: 0.5 h, dose 1-50 µM
T1 sequence (P04798 whole entry): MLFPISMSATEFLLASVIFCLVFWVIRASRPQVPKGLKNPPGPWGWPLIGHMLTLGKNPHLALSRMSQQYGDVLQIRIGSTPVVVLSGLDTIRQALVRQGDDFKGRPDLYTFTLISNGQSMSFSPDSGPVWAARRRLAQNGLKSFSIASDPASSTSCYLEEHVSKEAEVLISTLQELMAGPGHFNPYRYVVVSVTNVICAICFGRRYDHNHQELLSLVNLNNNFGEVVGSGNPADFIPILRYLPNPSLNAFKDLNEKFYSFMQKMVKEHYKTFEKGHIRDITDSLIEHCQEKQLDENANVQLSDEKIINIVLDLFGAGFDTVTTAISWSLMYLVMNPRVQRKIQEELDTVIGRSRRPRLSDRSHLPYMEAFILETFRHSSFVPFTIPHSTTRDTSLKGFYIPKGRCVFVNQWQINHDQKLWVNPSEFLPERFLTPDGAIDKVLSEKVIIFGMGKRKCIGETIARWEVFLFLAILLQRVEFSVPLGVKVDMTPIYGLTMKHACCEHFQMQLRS
T1 sequence (P05177 whole entry): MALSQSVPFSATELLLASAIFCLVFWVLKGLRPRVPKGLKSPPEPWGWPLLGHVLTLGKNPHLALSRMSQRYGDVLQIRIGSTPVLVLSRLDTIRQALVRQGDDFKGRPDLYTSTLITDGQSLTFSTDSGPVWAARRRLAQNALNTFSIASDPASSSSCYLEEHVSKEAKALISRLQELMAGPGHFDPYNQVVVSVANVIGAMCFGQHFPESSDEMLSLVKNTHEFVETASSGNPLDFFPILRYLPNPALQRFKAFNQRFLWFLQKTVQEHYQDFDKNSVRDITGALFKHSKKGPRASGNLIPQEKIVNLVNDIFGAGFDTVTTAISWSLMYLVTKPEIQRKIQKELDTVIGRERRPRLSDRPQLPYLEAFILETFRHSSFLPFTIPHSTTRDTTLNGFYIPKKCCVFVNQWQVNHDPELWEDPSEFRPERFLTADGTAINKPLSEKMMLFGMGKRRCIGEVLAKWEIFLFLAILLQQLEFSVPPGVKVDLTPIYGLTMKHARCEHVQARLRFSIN

Question: What does the source list for O=C(NO)c1ccc(CNC(=O)N2CCc3c(c4ccccc4n3Cc3ccccc3)C2)cc1?
Answer: Activity [1]: Active; Activity [2]: Active; Activity [3]: Active; Activity [4]: Non-Toxic; Activity [5]: Non-Toxic; solubility [6]: 309 µM (≈ 140 µg/mL); Activity [7]: Non-Toxic; Activity [8]: inactive; inhibition (INH) [9]: Not Active; inhibition (INH) [10]: Not Active
